Measurements taken from patent publication US6737383B1, “Herbicidal oxadiazolidines” (priority 1999, dated 2004).

Experiments:
velvetleaf = test: Test B pre/postemergence velvetleaf; format: in vivo, Abutilon theophrasti
Procedure, shortened: (§1)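 Herbicidal effect was estimated by eye on a ten-point control scale after plants spent twelve to sixteen days in a greenhouse following soil or foliar treatment. Foliar sprays targeted plants at one to four leaves; all doses were formulated in a non-phytotoxic solvent with surfactant.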

wheat = test: Test B pre/postemergence wheat; format: in vivo, Triticum aestivum
Procedure, shortened: as §1

purple nutsedge = test: Test B pre/postemergence purple nutsedge; format: in vivo, Cyperus rotundus
Procedure, shortened: as §1

bedstraw = test: Test B pre/postemergence bedstraw; format: in vivo, Galium aparine
Procedure, shortened: as §1

pigweed = test: Test B pre/postemergence pigweed; format: in vivo, Amaranthus retroflexus
Procedure, shortened: as §1

rape = test: Test B pre/postemergence rape; format: in vivo, Brassica napus
Procedure, shortened: as §1

soybean = test: Test B pre/postemergence soybean; format: in vivo, Glycine max
Procedure, shortened: as §1

surinam grass = test: Test B pre/postemergence surinam grass; format: in vivo, Brachiaria decumbens
Procedure, shortened: as §1

corn = test: Test B pre/postemergence corn; format: in vivo, Zea mays
Procedure, shortened: as §1

rice = test: Test B flood test rice; format: in vivo, Oryza sativa
Procedure, shortened: (§2)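 Read-out is a visual response score from 0 (no effect) to 10 (complete control), assigned by comparison with untreated controls. Treatment was applied at the 2-leaf stage, and plants stayed in the greenhouse for twelve to sixteen days before scoring.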

crabgrass = test: Test B pre/postemergence crabgrass; format: in vivo, Digitaria sanguinalis
Procedure, shortened: as §1

giant foxtail = test: Test B pre/postemergence giant foxtail; format: in vivo, Setaria faberii
Procedure, shortened: as §1

wild oat = test: Test B pre/postemergence wild oat; format: in vivo, Avena fatua
Procedure, shortened: as §1

morningglory = test: Test B pre/postemergence morningglory; format: in vivo, Ipomoea hederacea
Procedure, shortened: as §1

blackgrass = test: Test B pre/postemergence blackgrass; format: in vivo, Alopecurus myosuroides
Procedure, shortened: as §1

duck salad = test: Test B flood test duck salad; format: in vivo, Heteranthera limosa
Procedure, shortened: as §2

[1] = Preemergence, Rate 62 g/ha, scale of 0 to 10 where 0 is no effect and 10 is complete control
[2] = Preemergence, Rate 125 g/ha, 0 is no effect, 10 is complete control
[3] = Preemergence, Rate 250 g/ha, scale 0 to 10, 0 is no effect, 10 is complete control
[4] = Preemergence, Rate 500 g/ha, scale 0 to 10 (0 no effect, 10 complete control)
[5] = Rate 250 g/ha, Postemergence, scale 0 to 10, 0 is no effect, 10 is complete control
[6] = Rate 500 g/ha, Postemergence, scale 0 to 10
[7] = Postemergence, Rate 125 g/ha, scale of 0 to 10 where 0 is no effect and 10 is complete control
[8] = Rate 62 g/ha, Postemergence, scale of 0 to 10 where 0 is no effect and 10 is complete control
[9] = Postemergence (flood test species), Rate 125 g/ha, scale of 0 to 10 where 0 is no effect and 10 is complete control
[10] = Rate 62 g/ha, Postemergence section, flood test species, scale of 0 to 10 where 0 is no effect and 10 is complete control
[11] = Rate 250 g/ha, Postemergence (flood test), scale 0 to 10, 0 is no effect, 10 is complete control
[12] = Rate 500 g/ha, listed under Postemergence (flood test species), scale 0 to 10

In the case of `Cc1nsc(C)c1-n1c(=O)on(C(=O)N(c2ccc(Cl)cc2)C(C)C)c1=O` [Compound 159], the “Velvetleaf plant response rating” value (velvetleaf; [1]) was 0, the “Velvetleaf plant response rating (0 to 10 scale)” value (velvetleaf; [2]) was 0 and the “Velvetleaf plant response rating” value (velvetleaf; [3]) was 0. For the same compound, the “Velvetleaf plant response rating” value (velvetleaf; [4]) was 0, the “Plant response rating, Velvetleaf” value (velvetleaf; [5]) was 0 and the “Velvetleaf plant response rating” value (velvetleaf; [6]) was 0. The “Wheat plant response rating” value (wheat; [1]) was 0, the “Wheat plant response rating (0 to 10 scale)” value (wheat; [2]) was 0 and the “Wheat plant response rating” value (wheat; [3]) was 0. The “Wheat plant response rating” value (wheat; [4]) was 0, the “Plant response rating, Wheat” value (wheat; [5]) was 0 and the “Wheat plant response rating” value (wheat; [6]) was 0. For the same compound, the “Nutsedge plant response rating” value (purple nutsedge; [7]) was 0, the “Nutsedge plant response rating” value (purple nutsedge; [1]) was 0 and the “Nutsedge plant response rating (0 to 10 scale)” value (purple nutsedge; [2]) was 0. For the same compound, the “Nutsedge plant response rating” value (purple nutsedge; [3]) was 0, the “Nutsedge plant response rating” value (purple nutsedge; [4]) was 0 and the “Nutsedge plant response rating” value (purple nutsedge; [8]) was 0. For the same compound, the “Plant response rating, Nutsedge” value (purple nutsedge; [5]) was 0, the “Nutsedge plant response rating” value (purple nutsedge; [6]) was 0 and the “Bedstraw plant response rating” value (bedstraw; [7]) was 0. The “Bedstraw plant response rating” value (bedstraw; [1]) was 0, the “Bedstraw plant response rating (0 to 10 scale)” value (bedstraw; [2]) was 0 and the “Bedstraw plant response rating” value (bedstraw; [3]) was 0. For the same compound, the “Bedstraw plant response rating” value (bedstraw; [4]) was 0, the “Bedstraw plant response rating” value (bedstraw; [8]) was 0 and the “Plant response rating, Bedstraw” value (bedstraw; [5]) was 0. The “Bedstraw plant response rating” value (bedstraw; [6]) was 0, the “Redroot pigweed plant response rating” value (pigweed; [7]) was 0 and the “Redroot pigweed plant response rating” value (pigweed; [1]) was 0. For the same compound, the “Redroot pigweed plant response rating (0 to 10 scale)” value (pigweed; [2]) was 0, the “Redroot pigweed plant response rating” value (pigweed; [3]) was 0 and the “Redroot pigweed plant response rating” value (pigweed; [4]) was 0. For the same compound, the “Redroot pigweed plant response rating” value (pigweed; [8]) was 0, the “Plant response rating, Redroot pigweed” value (pigweed; [5]) was 0 and the “Redroot pigweed plant response rating” value (pigweed; [6]) was 0. The “Rape plant response rating” value (rape; [7]) was 0, the “Rape plant response rating” value (rape; [1]) was 0 and the “Rape plant response rating (0 to 10 scale)” value (rape; [2]) was 0. The “Rape plant response rating” value (rape; [3]) was 0, the “Rape plant response rating” value (rape; [4]) was 0 and the “Rape plant response rating” value (rape; [8]) was 0. For the same compound, the “Plant response rating, Rape” value (rape; [5]) was 0, the “Rape plant response rating” value (rape; [6]) was 0 and the “Soybean plant response rating” value (soybean; [7]) was 3. For the same compound, the “Soybean plant response rating” value (soybean; [1]) was 0, the “Soybean plant response rating (0 to 10 scale)” value (soybean; [2]) was 0 and the “Soybean plant response rating” value (soybean; [3]) was 0. The “Soybean plant response rating” value (soybean; [4]) was 0, the “Soybean plant response rating” value (soybean; [8]) was 0 and the “Plant response rating, Soybean” value (soybean; [5]) was 3. The “Soybean plant response rating” value (soybean; [6]) was 3, the “B. signalgrass plant response rating” value (surinam grass; [7]) was 0 and the “B. signalgrass plant response rating” value (surinam grass; [1]) was 0. The “B. signalgrass plant response rating (0 to 10 scale)” value (surinam grass; [2]) was 0, the “B. signalgrass plant response rating” value (surinam grass; [3]) was 0 and the “B. signalgrass plant response rating” value (surinam grass; [4]) was 0. For the same compound, the “B. signalgrass plant response rating” value (surinam grass; [8]) was 0, the “Plant response rating, B. signalgrass” value (surinam grass; [5]) was 0 and the “B. signalgrass plant response rating” value (surinam grass; Rate 500 g/ha, Postemergence, scale 0 to 10, 0 no effect, 10 complete control) was 0. The “Corn plant response rating” value (corn; [7]) was 0, the “Corn plant response rating” value (corn; [1]) was 0 and the “Corn plant response rating (0 to 10 scale)” value (corn; [2]) was 0. The “Corn plant response rating” value (corn; [3]) was 0, the “Corn plant response rating” value (corn; [4]) was 0 and the “Corn plant response rating” value (corn; [8]) was 0. The “Plant response rating, Corn” value (corn; [5]) was 0, the “Corn plant response rating” value (corn; [6]) was 0 and the “Rice plant response rating” value (rice; [9]) was 0. The “Rice plant response rating” value (rice; [10]) was 0, the “Plant response rating, Rice” value (rice; [11]) was 0 and the “Rice plant response rating” value (rice; [12]) was 0. The “Crabgrass plant response rating” value (crabgrass; [7]) was 0, the “Crabgrass plant response rating” value (crabgrass; [1]) was 0 and the “Crabgrass plant response rating (0 to 10 scale)” value (crabgrass; [2]) was 0. The “Crabgrass plant response rating” value (crabgrass; [3]) was 0, the “Crabgrass plant response rating” value (crabgrass; [4]) was 0 and the “Crabgrass plant response rating” value (crabgrass; [8]) was 0. The “Plant response rating, Crabgrass” value (crabgrass; [5]) was 0, the “Crabgrass plant response rating” value (crabgrass; [6]) was 0 and the “Giant foxtail plant response rating” value (giant foxtail; [7]) was 0. The “Giant foxtail plant response rating” value (giant foxtail; [1]) was 0, the “Giant foxtail plant response rating (0 to 10 scale)” value (giant foxtail; [2]) was 0 and the “Giant foxtail plant response rating” value (giant foxtail; [3]) was 0. For the same compound, the “Giant foxtail plant response rating” value (giant foxtail; [4]) was 0, the “Giant foxtail plant response rating” value (giant foxtail; [8]) was 0 and the “Plant response rating, Giant foxtail” value (giant foxtail; [5]) was 0. For the same compound, the “Giant foxtail plant response rating” value (giant foxtail; [6]) was 0, the “Wild oats plant response rating” value (wild oat; [1]) was 0 and the “Wild oats plant response rating (0 to 10 scale)” value (wild oat; [2]) was 0. The “Wild oats plant response rating” value (wild oat; [3]) was 0, the “Wild oats plant response rating” value (wild oat; [4]) was 0 and the “Plant response rating, Wild oats” value (wild oat; [5]) was 0. The “Wild oats plant response rating” value (wild oat; [6]) was 0, the “Morningglory plant response rating” value (morningglory; [7]) was 2 and the “Morningglory plant response rating” value (morningglory; [1]) was 0. The “Morningglory plant response rating (0 to 10 scale)” value (morningglory; [2]) was 0, the “Morningglory plant response rating” value (morningglory; [3]) was 0 and the “Morningglory plant response rating” value (morningglory; [4]) was 0. For the same compound, the “Morningglory plant response rating” value (morningglory; [8]) was 0, the “Plant response rating, Morningglory” value (morningglory; [5]) was 3 and the “Morningglory plant response rating” value (morningglory; [6]) was 4. The “Blackgrass plant response rating” value (blackgrass; [7]) was 0, the “Blackgrass plant response rating” value (blackgrass; [1]) was 0 and the “Blackgrass plant response rating (0 to 10 scale)” value (blackgrass; [2]) was 0. For the same compound, the “Blackgrass plant response rating” value (blackgrass; [3]) was 0, the “Blackgrass plant response rating” value (blackgrass; [4]) was 0 and the “Blackgrass plant response rating” value (blackgrass; [8]) was 0. The “Plant response rating, Blackgrass” value (blackgrass; [5]) was 0, the “Blackgrass plant response rating” value (blackgrass; [6]) was 0 and the “Ducksalad plant response rating” value (duck salad; [9]) was 0. For the same compound, the “Ducksalad plant response rating” value (duck salad; [10]) was 0, the “Plant response rating, Ducksalad” value (duck salad; [11]) was 0 and the “Ducksalad plant response rating” value (duck salad; [12]) was 0.
